Each structure is given as a SMILES string.

Our source for the residual activity values is ChEMBL document CHEMBL1152560, “Substituted 2-arylbenzothiazoles as kinase inhibitors: hit-to-lead optimization” (Bioorg Med Chem, 2009).

In assay [1] the target is Death-associated protein kinase 1 (Homo sapiens) (UniProt P53355). Briefly: Residual activity of DAPK1 at 0.1 uM by microplate scintillation counting.
In assay [2] the target is Serine/threonine-protein kinase N1 (Homo sapiens) (UniProt Q16512). As to the kind of experiment: Residual activity of PRK1 at 0.1 uM by microplate scintillation counting.
Chain of Serine/threonine-protein kinase N1 (Homo sapiens) (Q16512 2-942 limits assumed): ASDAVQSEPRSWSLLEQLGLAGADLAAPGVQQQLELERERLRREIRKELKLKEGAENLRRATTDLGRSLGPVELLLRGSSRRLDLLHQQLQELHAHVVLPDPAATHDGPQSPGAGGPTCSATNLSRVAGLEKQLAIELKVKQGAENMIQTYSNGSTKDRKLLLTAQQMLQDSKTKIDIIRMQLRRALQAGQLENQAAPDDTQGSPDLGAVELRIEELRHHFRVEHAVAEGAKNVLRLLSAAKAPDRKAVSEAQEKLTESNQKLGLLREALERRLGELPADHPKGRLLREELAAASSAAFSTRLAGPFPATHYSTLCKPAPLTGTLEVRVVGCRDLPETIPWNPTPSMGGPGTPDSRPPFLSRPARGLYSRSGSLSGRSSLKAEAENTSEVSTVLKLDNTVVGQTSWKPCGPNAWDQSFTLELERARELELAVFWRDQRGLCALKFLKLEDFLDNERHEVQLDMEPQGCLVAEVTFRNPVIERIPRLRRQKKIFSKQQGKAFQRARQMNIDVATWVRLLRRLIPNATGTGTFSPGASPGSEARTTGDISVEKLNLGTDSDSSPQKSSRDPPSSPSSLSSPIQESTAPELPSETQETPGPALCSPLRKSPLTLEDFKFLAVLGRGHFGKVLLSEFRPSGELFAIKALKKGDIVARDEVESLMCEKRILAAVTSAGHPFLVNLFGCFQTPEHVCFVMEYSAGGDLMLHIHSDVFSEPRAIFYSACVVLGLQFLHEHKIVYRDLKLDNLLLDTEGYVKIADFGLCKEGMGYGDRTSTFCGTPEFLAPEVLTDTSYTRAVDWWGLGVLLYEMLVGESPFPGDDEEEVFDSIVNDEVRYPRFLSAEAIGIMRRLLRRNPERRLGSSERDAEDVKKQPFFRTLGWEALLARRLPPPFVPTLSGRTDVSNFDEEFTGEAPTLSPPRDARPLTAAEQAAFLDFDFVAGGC
Assay [3] concerns the target Protein kinase C beta type (Homo sapiens) (UniProt P05771). Briefly: Residual activity of PKCbeta2 at 1 uM by microplate scintillation counting.
For assay [4], the target named is Non-receptor tyrosine-protein kinase TYK2 (Homo sapiens) (UniProt P29597). As to the kind of experiment: Residual activity of TYK2 at 1 uM by microplate scintillation counting.
Chain of Non-receptor tyrosine-protein kinase TYK2 (Homo sapiens) (P29597 whole entry): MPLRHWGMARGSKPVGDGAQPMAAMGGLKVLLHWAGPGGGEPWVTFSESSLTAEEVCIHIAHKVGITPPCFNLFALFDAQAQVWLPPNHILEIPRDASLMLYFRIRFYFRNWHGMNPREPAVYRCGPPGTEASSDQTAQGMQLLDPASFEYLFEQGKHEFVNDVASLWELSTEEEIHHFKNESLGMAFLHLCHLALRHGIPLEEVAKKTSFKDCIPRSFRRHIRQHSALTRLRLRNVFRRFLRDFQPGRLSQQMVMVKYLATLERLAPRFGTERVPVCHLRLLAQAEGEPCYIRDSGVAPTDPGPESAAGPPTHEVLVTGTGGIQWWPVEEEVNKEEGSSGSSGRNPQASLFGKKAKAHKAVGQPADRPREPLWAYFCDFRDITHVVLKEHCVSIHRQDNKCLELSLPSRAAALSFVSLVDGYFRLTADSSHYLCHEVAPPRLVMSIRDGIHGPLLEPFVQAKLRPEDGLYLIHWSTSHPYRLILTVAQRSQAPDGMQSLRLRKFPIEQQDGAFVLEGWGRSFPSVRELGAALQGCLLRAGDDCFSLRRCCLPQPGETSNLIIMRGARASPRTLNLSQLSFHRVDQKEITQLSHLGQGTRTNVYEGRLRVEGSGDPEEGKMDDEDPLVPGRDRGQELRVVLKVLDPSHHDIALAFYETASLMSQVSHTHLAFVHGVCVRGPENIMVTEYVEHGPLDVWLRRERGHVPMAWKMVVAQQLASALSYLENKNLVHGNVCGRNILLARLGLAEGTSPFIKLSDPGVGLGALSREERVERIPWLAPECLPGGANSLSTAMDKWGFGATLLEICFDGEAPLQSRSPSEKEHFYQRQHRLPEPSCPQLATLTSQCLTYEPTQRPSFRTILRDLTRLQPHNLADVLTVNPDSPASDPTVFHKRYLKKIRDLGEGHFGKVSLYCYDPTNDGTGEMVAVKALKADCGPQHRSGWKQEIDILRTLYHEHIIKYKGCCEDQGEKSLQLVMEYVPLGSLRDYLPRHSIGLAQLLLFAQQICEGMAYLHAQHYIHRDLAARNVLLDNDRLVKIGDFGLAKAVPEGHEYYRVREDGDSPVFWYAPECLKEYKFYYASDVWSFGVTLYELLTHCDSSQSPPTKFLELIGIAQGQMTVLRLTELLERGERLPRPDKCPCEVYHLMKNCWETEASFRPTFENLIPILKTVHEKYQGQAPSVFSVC
For assay [5], the target named is T1, Serine/threonine-protein kinase Sgk3 (Homo sapiens) (UniProt Q96BR1).
T1 sequence (whole entry): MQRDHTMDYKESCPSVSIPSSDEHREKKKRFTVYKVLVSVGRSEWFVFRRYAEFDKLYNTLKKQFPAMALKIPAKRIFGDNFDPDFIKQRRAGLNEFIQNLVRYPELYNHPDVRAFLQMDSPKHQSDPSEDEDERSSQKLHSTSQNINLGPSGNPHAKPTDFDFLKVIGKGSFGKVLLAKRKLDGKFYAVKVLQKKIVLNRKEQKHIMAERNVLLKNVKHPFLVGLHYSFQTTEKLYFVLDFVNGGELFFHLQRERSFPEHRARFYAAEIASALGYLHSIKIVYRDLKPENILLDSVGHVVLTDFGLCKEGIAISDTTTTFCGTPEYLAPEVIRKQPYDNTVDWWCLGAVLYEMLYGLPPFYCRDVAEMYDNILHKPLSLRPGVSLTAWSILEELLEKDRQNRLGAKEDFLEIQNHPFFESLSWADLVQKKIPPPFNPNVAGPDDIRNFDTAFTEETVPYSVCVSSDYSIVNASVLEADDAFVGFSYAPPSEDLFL
As to the kind of experiment: Residual activity of SGK3 at 10 uM by microplate scintillation counting.

Assay [6] has as its target T2, MAP kinase-activated protein kinase 5 (Homo sapiens) (UniProt Q8IW41).
T2 sequence (whole entry): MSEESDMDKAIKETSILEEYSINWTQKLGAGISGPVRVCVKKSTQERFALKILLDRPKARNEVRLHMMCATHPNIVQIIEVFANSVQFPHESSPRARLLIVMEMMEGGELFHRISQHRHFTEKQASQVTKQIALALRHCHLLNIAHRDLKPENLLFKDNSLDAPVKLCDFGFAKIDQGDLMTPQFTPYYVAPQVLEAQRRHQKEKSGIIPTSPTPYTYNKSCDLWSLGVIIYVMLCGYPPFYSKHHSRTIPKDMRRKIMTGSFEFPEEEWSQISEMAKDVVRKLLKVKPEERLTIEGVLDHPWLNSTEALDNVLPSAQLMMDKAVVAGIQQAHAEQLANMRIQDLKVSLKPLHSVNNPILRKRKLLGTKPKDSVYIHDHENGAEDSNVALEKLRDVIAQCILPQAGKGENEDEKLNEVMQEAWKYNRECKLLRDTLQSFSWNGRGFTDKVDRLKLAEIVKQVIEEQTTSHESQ
Briefly: Residual activity of MAPKAPK5 at 1 uM by microplate scintillation counting.

Assay [7] concerns the target T3, Beta-adrenergic receptor kinase 1 (Homo sapiens) (UniProt P25098).
T3 sequence (whole entry): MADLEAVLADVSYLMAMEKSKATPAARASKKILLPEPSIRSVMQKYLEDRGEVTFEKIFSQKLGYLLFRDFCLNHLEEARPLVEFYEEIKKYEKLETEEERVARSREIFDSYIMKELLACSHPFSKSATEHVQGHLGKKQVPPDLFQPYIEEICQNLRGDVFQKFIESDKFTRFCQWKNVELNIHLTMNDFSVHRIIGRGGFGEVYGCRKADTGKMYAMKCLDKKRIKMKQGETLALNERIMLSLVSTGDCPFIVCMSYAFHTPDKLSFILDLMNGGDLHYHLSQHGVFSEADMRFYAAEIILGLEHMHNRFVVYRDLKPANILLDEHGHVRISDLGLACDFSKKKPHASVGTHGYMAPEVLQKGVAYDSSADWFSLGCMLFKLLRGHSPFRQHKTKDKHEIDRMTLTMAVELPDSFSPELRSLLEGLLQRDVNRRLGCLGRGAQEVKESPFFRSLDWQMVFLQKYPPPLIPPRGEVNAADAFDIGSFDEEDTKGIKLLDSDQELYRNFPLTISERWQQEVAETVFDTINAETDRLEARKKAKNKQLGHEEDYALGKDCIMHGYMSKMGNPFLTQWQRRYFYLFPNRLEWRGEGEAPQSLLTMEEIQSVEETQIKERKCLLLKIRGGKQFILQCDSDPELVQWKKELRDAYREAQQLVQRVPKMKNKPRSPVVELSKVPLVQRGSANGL
Briefly: Residual activity of GRK2 at 0.1 uM by microplate scintillation counting.

Assay [8] deals with Tyrosine-protein kinase SYK (Homo sapiens) (UniProt P43405). As to the kind of experiment: Residual activity of SYK at 0.1 uM by microplate scintillation counting.
Assay [9] addresses Ephrin type-A receptor 5 (Homo sapiens) (UniProt P54756). Briefly: Residual activity of EPHA5 at 10 uM by microplate scintillation counting.
The target in assay [10] is Calcium/calmodulin-dependent protein kinase type II subunit alpha (Homo sapiens) (UniProt Q9UQM7). As to the kind of experiment: Residual activity of CAMK2A at 1 uM by microplate scintillation counting.
The target in assay [11] is Casein kinase I isoform gamma-1 (Homo sapiens) (UniProt Q9HCP0). Briefly: Residual activity of CK1gamma1 at 0.1 uM by microplate scintillation counting.
Chain of Casein kinase I isoform gamma-1 (Homo sapiens) (Q9HCP0 whole entry, looked up, canonical isoform): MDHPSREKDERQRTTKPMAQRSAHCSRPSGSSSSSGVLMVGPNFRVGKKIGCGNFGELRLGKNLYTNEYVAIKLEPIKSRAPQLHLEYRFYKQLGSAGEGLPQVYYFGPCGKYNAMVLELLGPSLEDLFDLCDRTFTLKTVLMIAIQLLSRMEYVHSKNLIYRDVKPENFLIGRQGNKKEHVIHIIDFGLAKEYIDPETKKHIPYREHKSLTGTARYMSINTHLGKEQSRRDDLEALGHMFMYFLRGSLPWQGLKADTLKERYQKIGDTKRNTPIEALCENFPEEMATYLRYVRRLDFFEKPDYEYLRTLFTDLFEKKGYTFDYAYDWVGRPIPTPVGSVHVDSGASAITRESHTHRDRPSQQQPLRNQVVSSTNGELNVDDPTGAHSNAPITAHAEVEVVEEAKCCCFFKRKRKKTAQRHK
Assay [12] addresses Serine/threonine-protein kinase 16 (Homo sapiens) (UniProt O75716). As to the kind of experiment: Residual activity of TSF1 at 1 uM by microplate scintillation counting.
Assay [13] has as its target T4, Serine/threonine-protein kinase NLK (Homo sapiens) (UniProt Q9UBE8).
T4 sequence (whole entry): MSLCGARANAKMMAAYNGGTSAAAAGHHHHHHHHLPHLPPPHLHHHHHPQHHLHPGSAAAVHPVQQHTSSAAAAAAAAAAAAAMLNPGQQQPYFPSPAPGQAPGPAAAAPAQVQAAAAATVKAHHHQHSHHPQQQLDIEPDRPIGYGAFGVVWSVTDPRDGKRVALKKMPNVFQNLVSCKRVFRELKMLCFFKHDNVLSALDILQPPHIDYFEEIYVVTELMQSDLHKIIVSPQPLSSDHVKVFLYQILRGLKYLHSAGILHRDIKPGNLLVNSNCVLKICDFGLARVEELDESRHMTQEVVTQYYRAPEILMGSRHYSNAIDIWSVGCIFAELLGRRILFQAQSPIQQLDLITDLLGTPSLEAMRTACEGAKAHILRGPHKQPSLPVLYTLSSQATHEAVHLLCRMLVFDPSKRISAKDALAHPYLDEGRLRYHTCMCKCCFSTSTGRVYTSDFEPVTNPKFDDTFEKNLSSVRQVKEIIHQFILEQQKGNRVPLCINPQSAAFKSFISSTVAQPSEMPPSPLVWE
As to the kind of experiment: Residual activity of NLK at 0.1 uM by microplate scintillation counting.

The target in assay [14] is PAS domain-containing serine/threonine-protein kinase (Homo sapiens) (UniProt Q96RG2). Briefly: Residual activity of PASK at 0.1 uM by microplate scintillation counting.
Chain of PAS domain-containing serine/threonine-protein kinase (Homo sapiens) (Q96RG2 whole entry, the tested form may be a part): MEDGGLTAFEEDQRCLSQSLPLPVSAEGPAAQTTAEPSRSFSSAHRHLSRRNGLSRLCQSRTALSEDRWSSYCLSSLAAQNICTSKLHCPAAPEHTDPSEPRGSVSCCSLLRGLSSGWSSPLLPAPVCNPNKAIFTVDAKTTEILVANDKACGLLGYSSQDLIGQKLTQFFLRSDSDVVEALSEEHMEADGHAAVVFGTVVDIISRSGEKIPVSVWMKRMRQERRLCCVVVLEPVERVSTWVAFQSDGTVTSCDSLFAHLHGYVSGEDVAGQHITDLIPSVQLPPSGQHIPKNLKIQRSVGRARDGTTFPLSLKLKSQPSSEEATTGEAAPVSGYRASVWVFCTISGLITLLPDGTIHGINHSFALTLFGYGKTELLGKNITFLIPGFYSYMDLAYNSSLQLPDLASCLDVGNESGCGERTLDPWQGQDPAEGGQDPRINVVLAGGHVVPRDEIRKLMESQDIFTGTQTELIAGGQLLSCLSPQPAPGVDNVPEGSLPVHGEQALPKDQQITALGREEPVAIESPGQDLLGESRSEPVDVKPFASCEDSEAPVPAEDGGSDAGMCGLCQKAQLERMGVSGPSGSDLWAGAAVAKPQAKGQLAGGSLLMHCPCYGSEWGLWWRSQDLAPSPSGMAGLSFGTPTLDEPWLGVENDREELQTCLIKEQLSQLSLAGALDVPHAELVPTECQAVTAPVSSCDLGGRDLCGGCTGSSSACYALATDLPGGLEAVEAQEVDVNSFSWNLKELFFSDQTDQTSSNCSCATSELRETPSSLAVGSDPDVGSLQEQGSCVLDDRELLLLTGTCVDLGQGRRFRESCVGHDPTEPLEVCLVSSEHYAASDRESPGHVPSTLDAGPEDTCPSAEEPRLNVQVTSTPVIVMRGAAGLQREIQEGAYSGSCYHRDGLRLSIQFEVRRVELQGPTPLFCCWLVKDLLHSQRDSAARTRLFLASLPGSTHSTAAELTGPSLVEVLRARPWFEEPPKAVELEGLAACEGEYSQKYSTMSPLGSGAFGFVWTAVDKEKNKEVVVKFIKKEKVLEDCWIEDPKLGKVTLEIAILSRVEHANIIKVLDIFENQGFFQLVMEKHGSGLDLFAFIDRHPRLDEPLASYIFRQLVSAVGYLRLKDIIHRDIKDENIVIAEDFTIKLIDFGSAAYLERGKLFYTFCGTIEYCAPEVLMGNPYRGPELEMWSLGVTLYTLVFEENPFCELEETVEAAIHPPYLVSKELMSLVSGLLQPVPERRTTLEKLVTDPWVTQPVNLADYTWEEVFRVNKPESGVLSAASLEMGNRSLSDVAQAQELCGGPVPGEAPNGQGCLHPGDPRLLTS

Chain of Ephrin type-A receptor 5 (Homo sapiens) (P54756 whole entry): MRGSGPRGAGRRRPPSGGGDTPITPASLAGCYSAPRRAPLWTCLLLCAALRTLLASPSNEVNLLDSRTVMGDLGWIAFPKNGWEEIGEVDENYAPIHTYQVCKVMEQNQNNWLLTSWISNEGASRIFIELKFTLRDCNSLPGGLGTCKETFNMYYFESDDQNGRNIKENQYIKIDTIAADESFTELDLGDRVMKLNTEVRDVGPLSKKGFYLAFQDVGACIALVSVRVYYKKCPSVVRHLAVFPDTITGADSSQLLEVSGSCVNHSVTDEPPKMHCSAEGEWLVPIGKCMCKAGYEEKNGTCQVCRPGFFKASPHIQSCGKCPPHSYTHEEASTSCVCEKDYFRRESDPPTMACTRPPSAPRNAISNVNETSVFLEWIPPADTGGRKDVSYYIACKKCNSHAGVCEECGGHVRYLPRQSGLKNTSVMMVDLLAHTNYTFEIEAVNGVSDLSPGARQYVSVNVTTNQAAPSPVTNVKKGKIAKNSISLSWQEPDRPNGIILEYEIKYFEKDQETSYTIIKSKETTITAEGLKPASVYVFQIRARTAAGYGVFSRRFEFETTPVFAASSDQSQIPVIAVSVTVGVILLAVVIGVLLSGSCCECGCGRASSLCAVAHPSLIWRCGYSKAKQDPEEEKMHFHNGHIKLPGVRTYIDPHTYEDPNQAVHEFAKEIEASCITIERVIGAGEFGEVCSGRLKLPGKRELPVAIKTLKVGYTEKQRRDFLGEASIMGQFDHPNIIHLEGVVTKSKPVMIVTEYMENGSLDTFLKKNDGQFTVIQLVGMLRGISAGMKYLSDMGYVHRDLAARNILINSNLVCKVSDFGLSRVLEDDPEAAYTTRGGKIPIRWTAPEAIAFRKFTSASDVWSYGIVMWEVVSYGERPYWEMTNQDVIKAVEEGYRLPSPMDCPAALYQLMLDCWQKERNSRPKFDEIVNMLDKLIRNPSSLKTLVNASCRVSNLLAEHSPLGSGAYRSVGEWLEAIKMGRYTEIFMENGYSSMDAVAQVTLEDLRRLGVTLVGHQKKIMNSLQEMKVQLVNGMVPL

As for `COc1cc2c(Oc3ccc(-c4nc5ccccc5s4)cc3)ncnc2cc1OCCCN1CCN(C)CC1`, the residual activity in assay [1] turned out to be 73%; in assay [2], 99%; in assay [3] it was 104%; in assay [4], 93%; in assay [5], 112%; in assay [6], 107%. Besides, the residual activity is 95% in assay [7]; 96% in assay [8]; 302% in [9]; 69% in assay [10]; 102% in assay [11]; 90% in [12]. For the same compound, the results for the residual activity in assay [13] and in assay [14] were 94% and 92%, respectively.

`COc1cc2c(Oc3ccc(-c4nc5ccccc5s4)cc3)ncnc2cc1OCCCN1CCCC1`: the residual activity in [1] is 86%; in [2], 96%; in [3] it was 111%; in [4], 90%; in assay [5], 98%; in [6], 90%. The residual activity in assay [7] amounted to 95%; in [8], 103%; in assay [9], 236%; in [10], 81%; in [11], 84%; in [12], 87%. In addition, the residual activity stood at 90% in assay [13] and 99% in assay [14].

Turning to `COc1cc2c(Oc3ccc(-c4nc5ccccc5s4)cc3F)ncnc2cc1OCCCN1CCN(C)CC1`, the residual activity amounted to 80% in assay [1]; 94% in assay [2]; 132% in [3]; 92% in assay [4]; 97% in assay [5]; 90% in assay [6]. The residual activity stood at 89% in assay [7]; 97% in assay [8]; 162% in assay [9]; 83% in assay [10]; 100% in [11]; 96% in [12]. In addition, the residual activity came to 91% in [13] and 89% in assay [14].
